From US6979686B1, “Substituted pyrazoles as p38 kinase inhibitors” (Pharmacia Corporation, priority 2001, dated 2005)
Read-outs that look alike come from different tables or passages of the source.

Biological target: T1, human p38 kinase alpha (Homo sapiens, UniProt Q16539)
T1 construct: GST (N, cleaved yes); made in house; host or cells: E. coli DH10B
Assay: p38 kinase in vitro assay, phosphorylation of biotinylated PHAS-I with 32P-ATP
Type: biochemical
Details: for inhibition at 1 µM: read-out: P38 alpha kinase % inhib @ conc.

[1] = in vitro P38-alpha kinase inhibition, read-out: P38 alpha kinase IC50
[2] = in vitro P38-alpha kinase, read-out: P38 alpha kinase IC50
[3] = activated human p38 kinase alpha, PHAS-I substrate, 50 μM unlabeled ATP, read-out: p38 kinase IC50

T1 sequence (Q16539 whole entry): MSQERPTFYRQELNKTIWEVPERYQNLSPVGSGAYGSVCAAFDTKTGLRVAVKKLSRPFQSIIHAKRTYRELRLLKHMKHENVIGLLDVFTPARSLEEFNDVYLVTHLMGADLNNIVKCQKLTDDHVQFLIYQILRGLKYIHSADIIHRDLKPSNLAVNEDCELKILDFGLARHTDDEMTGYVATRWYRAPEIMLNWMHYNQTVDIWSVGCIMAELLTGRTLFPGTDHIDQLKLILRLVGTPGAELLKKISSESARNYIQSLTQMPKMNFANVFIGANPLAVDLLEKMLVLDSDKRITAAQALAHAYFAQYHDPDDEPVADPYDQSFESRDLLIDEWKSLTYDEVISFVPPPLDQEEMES

CC(NS(=O)(=O)c1ccc(C#N)cc1)c1[nH]nc(-c2ccc(F)cc2)c1-c1ccncc1 (stereo not shown) [Example B-0656]
IC50 [1]: 7 nM

O=C(c1ccccc1Br)N1CCC(c2[nH]nc(-c3ccc(F)cc3)c2-c2ccncc2)CC1 [Example B-1398]
IC50 [2]: 670 nM

CCC(Oc1ccccc1)C(=O)NCc1[nH]nc(-c2ccc(F)cc2)c1-c1ccncc1 (stereo not shown) [Example B-0047]
inhibition at 1 µM (@ 1.0 uM): 94%

O=S(=O)(NCCCc1[nH]nc(-c2ccc(F)cc2)c1-c1ccncc1)c1ccc(Cl)cc1 [Example B-1238]
IC50 [2]: 140 nM

CC(C)c1ccc(S(=O)(=O)NC(C)c2[nH]nc(-c3ccc(F)cc3)c2-c2ccncc2)cc1 (stereo not shown) [Example B-0623]
IC50 [1]: 120 nM

CC(=O)NCCc1[nH]nc(-c2ccc(F)cc2)c1-c1ccncc1 [Example B-0987]
P38 alpha kinase % inhib @ conc. (uM) (@ 1.0 uM): 78.0% @

Cc1c(-c2ccncc2)c(-c2ccc(F)cc2)nn1CC(=O)N1CCCCC1 [Example B-2401]
P38 alpha kinase IC50, uM or % inhib @ conc. (uM): % inhib (@ 10.0 uM): 78.0% @

COc1ccc(OC)c(CC(=O)NCc2[nH]nc(-c3ccc(F)cc3)c2-c2ccncc2)c1 [Example B-0013]
inhibition at 1 µM (@ 1.0 uM): 70%

O=C(Cc1cccs1)NC(Cc1ccccc1)c1[nH]nc(-c2ccc(F)cc2)c1-c1ccncc1 (stereo not shown) [Example B-0790]
IC50 [1]: 1000 nM

O=S(=O)(Cc1ccccc1)NC(Cc1ccccc1)c1[nH]nc(-c2ccc(F)cc2)c1-c1ccncc1 (stereo not shown) [Example B-0756]
IC50 [1]: 940 nM

O=C(NCCc1[nH]nc(-c2ccc(F)cc2)c1-c1ccncc1)N1CCOCC1 [Example B-1033]
P38 alpha kinase % inhib @ conc. (uM) (@ 1.0 uM): 86.0% @

CCOC(=O)NC(Cc1ccccc1)c1[nH]nc(-c2ccc(F)cc2)c1-c1ccncc1 (stereo not shown) [Example B-0748]
IC50 [1]: 1200 nM

Cc1cccc(-c2n[nH]c(-c3cccc(C)c3)c2-c2ccncc2)c1 [Example A-28]
IC50 [3]: 300 nM

Cc1c(-c2ccncc2)c(-c2ccc(F)cc2)nn1CC(=O)N(CCC#N)CC1CCCO1 (stereo not shown) [Example B-2404]
P38 alpha kinase IC50, uM or % inhib @ conc. (uM): % inhib (@ 100.0 uM): 58% @

COc1ccc(CC(=O)NC(Cc2ccccc2)c2[nH]nc(-c3ccc(F)cc3)c2-c2ccncc2)cc1 (stereo not shown) [Example B-0848]
IC50 [1]: 1560 nM

O=C(NCCCc1[nH]nc(-c2ccc(F)cc2)c1-c1ccncc1)c1c(Cl)cccc1Cl [Example B-1348]
IC50 [2]: 9 nM

O=S(=O)(NCCCc1[nH]nc(-c2ccc(F)cc2)c1-c1ccncc1)c1cc(Cl)cc(Cl)c1 [Example B-1269]
IC50 [2]: 460 nM

CC(C)C(=O)NCCCc1[nH]nc(-c2ccc(F)cc2)c1-c1ccncc1 [Example B-1160]
P38 alpha kinase % inhib @ conc. (uM) (@ 1.0 uM): 79.0% @

O=S(=O)(NCCc1[nH]nc(-c2ccc(F)cc2)c1-c1ccncc1)c1ccc(F)cc1F [Example B-1018]
P38 alpha kinase % inhib @ conc. (uM) (@ 1.0 uM): 88.0% @

O=C(NCc1[nH]nc(-c2ccc(F)cc2)c1-c1ccncc1)c1ccc([N+](=O)[O-])cc1 [Example B-0022]
inhibition at 1 µM (@ 1.0 uM): 69%

O=C(NC(Cc1ccccc1)c1[nH]nc(-c2ccc(F)cc2)c1-c1ccncc1)N1CCOCC1 (stereo not shown) [Example B-0727]
IC50 [1]: 510 nM

O=C(NC(Cc1ccccc1)c1[nH]nc(-c2ccc(F)cc2)c1-c1ccncc1)c1ccc(F)c(F)c1F (stereo not shown) [Example B-0845]
IC50 [1]: 1780 nM

O=S(=O)(NCCCc1[nH]nc(-c2ccc(F)cc2)c1-c1ccncc1)c1ccc2ccccc2c1 [Example B-1280]
IC50 [2]: 39 nM

CCNC(=O)NC(Cc1ccccc1)c1[nH]nc(-c2ccc(F)cc2)c1-c1ccncc1 (stereo not shown) [Example B-0743]
IC50 [1]: 1200 nM

CC(NS(=O)(=O)c1ccc(-c2ccccn2)s1)c1[nH]nc(-c2ccc(F)cc2)c1-c1ccncc1 (stereo not shown) [Example B-0660]
IC50 [1]: 88 nM

O=C(NCCc1[nH]nc(-c2ccc(F)cc2)c1-c1ccncc1)c1cc(F)cc(C(F)(F)F)c1 [Example B-1141]
IC50 [1]: 2470 nM

COc1cccc(CC(=O)NC(Cc2ccccc2)c2[nH]nc(-c3ccc(F)cc3)c2-c2ccncc2)c1 (stereo not shown) [Example B-0817]
IC50 [1]: 3070 nM

CCc1cccc(CC)c1NC(=O)Cn1nc(-c2ccc(F)cc2)c(-c2ccncc2)c1C [Example B-2420]
P38 alpha kinase IC50, uM or % inhib @ conc. (uM): % inhib (@ 10.0 uM): 70.0% @

CS(=O)(=O)NCCCc1[nH]nc(-c2ccc(F)cc2)c1-c1ccncc1 [Example B-1201]
P38 alpha kinase % inhib @ conc. (@ 1.0 uM): 84.0% @

C[C@@H](NS(=O)(=O)c1cccc(Cl)c1)c1[nH]nc(-c2ccc(F)cc2)c1-c1ccncc1 [Example B-0462]
IC50 [1]: < 100 nM

CC(NS(=O)(=O)c1ccccc1Br)c1[nH]nc(-c2ccc(F)cc2)c1-c1ccncc1 (stereo not shown) [Example B-0631]
IC50 [1]: 65 nM

CCN1CC(NC(=O)Cn2nc(-c3ccc(F)cc3)c(-c3ccncc3)c2C)CN1CC [Example B-2357]
P38 alpha kinase % inhib @ conc. (@ 10.0 uM): 47.0% @

O=C(Nc1ccc(F)cc1)NC(Cc1ccccc1)c1[nH]nc(-c2ccc(F)cc2)c1-c1ccncc1 (stereo not shown) [Example B-0773]
IC50 [1]: 14000 nM

O=C(NCCCc1[nH]nc(-c2ccc(F)cc2)c1-c1ccncc1)c1ccc(F)cc1C(F)(F)F [Example B-1340]
IC50 [2]: 43 nM

COc1ccc(NC(=O)NCCCc2[nH]nc(-c3ccc(F)cc3)c2-c2ccncc2)cc1 [Example B-1224]
P38 alpha kinase % inhib @ conc. (@ 1.0 uM): 82.0% @

CCCCNC(=O)Cn1nc(-c2ccc(F)cc2)c(-c2ccncc2)c1C [Example B-2293]
IC50 [2]: 2110 nM

O=C(NCCc1[nH]nc(-c2ccc(F)cc2)c1-c1ccncc1)c1ccc(C(F)(F)F)cc1F [Example B-1136]
IC50 [1]: 1170 nM

CC(NC(=O)NC(C)c1[nH]nc(-c2ccc(F)cc2)c1-c1ccncc1)c1ccccc1 (stereo not shown) [Example B-0414]
IC50 [1]: 2540 nM

Cc1c(C)c(S(=O)(=O)NCCCc2[nH]nc(-c3ccc(F)cc3)c2-c2ccncc2)c(C)c2c1OC(C)(C)CC2 [Example B-1287]
IC50 [2]: 250 nM

Cc1cc(C)cc(-c2n[nH]c(C)c2-c2ccncc2)c1 [Example A-34]
IC50 [3]: 8000 nM

Cc1c(-c2ccncc2)c(-c2ccc(F)cc2)nn1CC(=O)NCc1ccc(C(C)(C)C)cc1 [Example B-2290]
IC50 [2]: 2370 nM

CCCCCCOc1ccc(NC(=O)Cn2nc(-c3ccc(F)cc3)c(-c3ccncc3)c2C)cc1 [Example B-2436]
P38 alpha kinase IC50, uM or % inhib @ conc. (uM): % inhib (@ 10.0 uM): 80.0% @

CC(NC(=O)c1ccc(I)cc1)c1[nH]nc(-c2ccc(F)cc2)c1-c1ccncc1 (stereo not shown) [Example B-0540]
IC50 [1]: 3620 nM

O=C(c1ccc(F)cc1C(F)(F)F)N1CCC(c2[nH]nc(-c3ccc(F)cc3)c2-c2ccncc2)CC1 [Example B-1410]
IC50 [2]: < 100 nM

O=C(c1ccc(F)cc1F)N1CCC(c2[nH]nc(-c3ccc(F)cc3)c2-c2ccncc2)CC1 [Example B-1412]
IC50 [2]: 97 nM

Cc1c(-c2ccncc2)c(-c2ccc(F)cc2)nn1CC(=O)NC1CCC(C(C)(C)C)CC1 (stereo not shown) [Example B-2350]
P38 alpha kinase % inhib @ conc. (@ 10.0 uM): 38.0% @

COc1ccc(Cl)cc1S(=O)(=O)NCCc1[nH]nc(-c2ccc(F)cc2)c1-c1ccncc1 [Example B-1106]
IC50 [1]: < 100 nM

CN(C)c1cccc2c(S(=O)(=O)NCCCc3[nH]nc(-c4ccc(F)cc4)c3-c3ccncc3)cccc12 [Example B-1249]
IC50 [2]: 240 nM

COc1cccc(CC(=O)NCCCc2[nH]nc(-c3ccc(F)cc3)c2-c2ccncc2)c1 [Example B-1178]
P38 alpha kinase % inhib @ conc. (uM) (@ 1.0 uM): 92.0% @

CC(NC(=O)NC(Cc1ccccc1)c1[nH]nc(-c2ccc(F)cc2)c1-c1ccncc1)c1ccccc1 (stereo not shown) [Example B-0784]
IC50 [1]: 7000 nM

CCOC(=O)NC(Cc1ccccc1)c1[nH]nc(-c2ccc(F)cc2)c1-c1ccncc1 (stereo not shown) [Example B-0793]
IC50 [1]: 300 nM

Cc1c(-c2ccncc2)c(-c2ccc(F)cc2)nn1CC(=O)Nc1ccccc1Cc1ccccc1 [Example B-2434]
P38 alpha kinase IC50, uM or % inhib @ conc. (uM): % inhib (@ 10.0 uM): 92.0% @
